{
  "source": "patent EP4599826A1",
  "about": "“LEUCINE FOR USE IN THE TREATMENT OF CANCER” (priority 2024, dated 2025)",
  "key": {"[1]": {"test_system": "LLC lung cell transplants", "assay": "syngeneic subcutaneous LLC lung cancer mouse model: tumor growth and survival", "assay_type": "in vivo, female C57BL6/J mice", "description": "(§1) As for experiments employing the use of chemotherapy, carboplatin (Sindan, 10mg/ml), oxaliplatin (Mylan, 5mg/ml in infusion solution) and paclitaxel (Accord, 6mg/ml in 527mg/ml polyoxyethylated castor oil and 391 mg/ml ethanol) were provided by Istituto Nazionale dei Tumori, Milano.\n(§2) The impact of oral Leucine supplementation, as given at a daily dose of 500 mg/Kg Leucine by oral gavage, was investigated on in vivo tumor growth and mouse survival in orthotopic (4T1 and E0771 TNBC cells injected in the mammary fat pad of female BALB/c mice and female C57BL6/J mice, respectively) or subcutaneous (CT26: murine colorectal carcinoma - CRC, or LLC: murine […] lung carcinoma cells, injected in the subcutaneous tissue of female BALB/c mice and female C57BL6/J mice, respectively) syngeneic tumor models."}, "E0771 cell transplants": {"test_system": "E0771 cell transplants", "assay": "syngeneic orthotopic E0771 TNBC mouse model: tumor growth and survival", "assay_type": "in vivo, female C57BL6/J mice", "description": "as §1, §2"}, "[2]": {"test_system": "syngeneic mouse tumor models", "conditions": "Leucine + anti-PD-L1 immunotherapy, tumor model not stated"}, "4T1-luc cell transplants": {"test_system": "4T1-luc cell transplants", "assay": "syngeneic orthotopic 4T1 TNBC mouse model: tumor growth and survival", "assay_type": "in vivo, female BALB/c mice", "description": "as §1, §2"}, "[3]": {"test_system": "CT26 CRC cell transplants", "assay": "syngeneic subcutaneous CT26 colorectal cancer mouse model: tumor growth and survival", "assay_type": "in vivo, female BALB/c mice", "description": "as §1, §2"}, "[4]": {"conditions": "Leu + fasting + anti-PD-L1, compared to anti-PDL1 MoAb + fasting"}, "[5]": {"conditions": "Leucine 500 mg/kg daily + cyclic fasting + carboplatin 50 mg/kg weekly + anti-PD-L1 MoAb, compared to the fasting-Leucine doublet"}, "[6]": {"conditions": "Leucine 500 mg/kg daily oral gavage + carboplatin 50 mg/kg once a week i.p., effect less evident, yet still statistically significant"}, "[7]": {"conditions": "Leucine 500 mg/kg daily oral gavage + cyclic fasting (48-hour water-only fasting, repeated every 7 days)"}, "[8]": {"conditions": "Leucine 500 mg/kg once a day by oral gavage, alone, standard diet"}, "[9]": {"conditions": "Leucine 500 mg/kg daily oral gavage + anti-PD-L1 MoAb 100 ug per mouse i.p. every other day, 4 cycles"}, "[10]": {"conditions": "Leucine 500 mg/kg daily oral gavage + paclitaxel 30 mg/kg once a week i.p., most relevant effects in this model"}, "[11]": {"conditions": "Leucine 500 mg/kg daily oral gavage + oxaliplatin 5 mg/kg once a week i.p., effect less evident, yet still statistically significant"}, "[12]": {"conditions": "paclitaxel alone, 30 mg/kg once a week i.p."}, "[13]": {"conditions": "oxaliplatin alone, 5 mg/kg once a week i.p."}, "[14]": {"conditions": "carboplatin alone, 50 mg/kg once a week i.p."}},
  "data": [
    {"smiles": "CC(C)C[C@H](N)C(=O)O", "note": "[Leucine]", "values": [
      {"measurement": "animal survival", "setting": "[1]; [4]", "value": "prolonged animal survival"},
      {"measurement": "tumor growth", "setting": "[1]; [4]", "value": "significantly slowed down tumor growth"},
      {"measurement": "animal survival", "setting": "[1]; [5]", "value": "meaningful prolongation of animal survival"},
      {"measurement": "animal survival", "setting": "[1]; [6]", "value": "prolonging animal survival"},
      {"measurement": "in vivo tumor growth", "setting": "[1]; [6]", "value": "cooperated with chemotherapy in slowing down in vivo tumor growth"},
      {"measurement": "animal survival", "setting": "[1]; [7]", "value": "significant prolongation of animal survival"},
      {"measurement": "in vivo tumor growth", "setting": "[1]; [7]", "value": "cooperative reduction of in vivo tumor growth"},
      {"measurement": "animal survival", "setting": "[1]; [8]", "value": "prolonged animal survival"},
      {"measurement": "primary tumor growth", "setting": "[1]; [8]", "value": "slowed down primary tumor growth"},
      {"measurement": "animal survival", "setting": "E0771 cell transplants; Leucine 500 mg/kg daily + cyclic fasting + paclitaxel 30 mg/kg weekly + anti-PD-L1 MoAb, compared to the fasting-Leucine doublet", "value": "meaningful prolongation of animal survival"},
      {"measurement": "animal survival", "setting": "E0771 cell transplants; [9]", "value": "prolonged animal survival"},
      {"measurement": "in vivo tumor growth", "setting": "E0771 cell transplants; [9]", "value": "cooperatively slowed down in vivo tumor growth"},
      {"measurement": "animal survival", "setting": "E0771 cell transplants; [7]", "value": "significant prolongation of animal survival"},
      {"measurement": "in vivo tumor growth", "setting": "E0771 cell transplants; [7]", "value": "cooperative reduction of in vivo tumor growth"},
      {"measurement": "animal survival", "setting": "E0771 cell transplants; [10]", "value": "prolonging animal survival"},
      {"measurement": "in vivo tumor growth", "setting": "E0771 cell transplants; [10]", "value": "cooperated with chemotherapy in slowing down in vivo tumor growth"},
      {"measurement": "animal survival", "setting": "E0771 cell transplants; [8]", "value": "prolonged animal survival"},
      {"measurement": "primary tumor growth", "setting": "E0771 cell transplants; [8]", "value": "slowed down primary tumor growth"},
      {"measurement": "primary tumor", "setting": "E0771 cell transplants; quadruple treatment: Leucine + cyclic fasting + paclitaxel + anti-PD-L1 MoAb", "value": "complete regression of the primary tumor in some mice"},
      {"measurement": "primary tumor mass", "setting": "[2]; observed in some animals", "value": "completed disappearance of the primary tumor mass"},
      {"measurement": "survival of some mice", "setting": "[2]; some mice", "value": "long-term survival"},
      {"measurement": "animal survival", "setting": "4T1-luc cell transplants; [5]", "value": "meaningful prolongation of animal survival"},
      {"measurement": "animal survival", "setting": "4T1-luc cell transplants; [9]", "value": "prolonged animal survival"},
      {"measurement": "in vivo tumor growth", "setting": "4T1-luc cell transplants; [9]", "value": "cooperatively slowed down in vivo tumor growth"},
      {"measurement": "animal survival", "setting": "4T1-luc cell transplants; [6]", "value": "prolonging animal survival"},
      {"measurement": "in vivo tumor growth", "setting": "4T1-luc cell transplants; [6]", "value": "cooperated with chemotherapy in slowing down in vivo tumor growth"},
      {"measurement": "animal survival", "setting": "4T1-luc cell transplants; [7]", "value": "significant prolongation of animal survival"},
      {"measurement": "in vivo tumor growth", "setting": "4T1-luc cell transplants; [7]", "value": "cooperative reduction of in vivo tumor growth"},
      {"measurement": "animal survival", "setting": "4T1-luc cell transplants; [8]", "value": "prolonged animal survival"},
      {"measurement": "primary tumor growth", "setting": "4T1-luc cell transplants; [8]", "value": "slowed down primary tumor growth"},
      {"measurement": "animal survival", "setting": "[3]; Leucine 500 mg/kg daily + cyclic fasting + oxaliplatin 5 mg/kg weekly + anti-PD-L1 MoAb, compared to the fasting-Leucine doublet", "value": "meaningful prolongation of animal survival"},
      {"measurement": "animal survival", "setting": "[3]; [9]", "value": "prolonged animal survival"},
      {"measurement": "in vivo tumor growth", "setting": "[3]; [9]", "value": "cooperatively slowed down in vivo tumor growth"},
      {"measurement": "animal survival", "setting": "[3]; [7]", "value": "significant prolongation of animal survival"},
      {"measurement": "in vivo tumor growth", "setting": "[3]; [7]", "value": "cooperative reduction of in vivo tumor growth"},
      {"measurement": "animal survival", "setting": "[3]; [11]", "value": "prolonging animal survival"},
      {"measurement": "in vivo tumor growth", "setting": "[3]; [11]", "value": "cooperated with chemotherapy in slowing down in vivo tumor growth"},
      {"measurement": "animal survival", "setting": "[3]; [8]", "value": "prolonged animal survival"},
      {"measurement": "primary tumor growth", "setting": "[3]; [8]", "value": "slowed down primary tumor growth"},
      {"measurement": "primary tumor", "setting": "[3]; quadruple treatment: Leucine + cyclic fasting + oxaliplatin + anti-PD-L1 MoAb", "value": "complete regression of the primary tumor in some mice"}
    ]},
    {"smiles": "CC(=O)O[C@H]1C(=O)[C@@]2(C)[C@H]([C@H](OC(=O)c3ccccc3)[C@]3(O)C[C@H](OC(=O)[C@H](O)[C@@H](NC(=O)c4ccccc4)c4ccccc4)C(C)=C1C3(C)C)[C@]1(OC(C)=O)CO[C@@H]1C[C@@H]2O", "note": "[paclitaxel, reference compound]", "values": [
      {"measurement": "animal survival", "setting": "E0771 cell transplants; [12]", "value": "statistically significant prolongation of animal survival"},
      {"measurement": "in vivo tumor growth", "setting": "E0771 cell transplants; [12]", "value": "slowed down in vivo tumor growth"}
    ]},
    {"smiles": "O=C1[O][Pt]2([NH][C@@H]3CCCC[C@H]3[NH]2)[O]C1=O", "note": "[oxaliplatin, reference compound]", "values": [
      {"measurement": "animal survival", "setting": "[3]; [13]", "value": "statistically significant prolongation of animal survival"},
      {"measurement": "in vivo tumor growth", "setting": "[3]; [13]", "value": "slowed down in vivo tumor growth"}
    ]},
    {"smiles": "N.N.O=C([O-])C1(C(=O)[O-])CCC1.[Pt+2]", "note": "[carboplatin, reference compound]", "values": [
      {"measurement": "animal survival", "setting": "[1]; [14]", "value": "statistically significant prolongation of animal survival"},
      {"measurement": "in vivo tumor growth", "setting": "[1]; [14]", "value": "slowed down in vivo tumor growth"},
      {"measurement": "animal survival", "setting": "4T1-luc cell transplants; [14]", "value": "statistically significant prolongation of animal survival"},
      {"measurement": "in vivo tumor growth", "setting": "4T1-luc cell transplants; [14]", "value": "slowed down in vivo tumor growth"}
    ]}
  ]
}
